Key:
[1] = system: MDA-MB-231 tumor xenografts; assay: MDA-MB-231 cell-line derived xenograft (CDX), IP dose study; type: in vivo, athymic nude mice; settings: for tumor growth inhibition (TGI): 5 days a week, 4 weeks
Text: Female athymic nude (Jackson Laboratory, Bar Harbor, Maine, USA) 5–6 weeks of age were housed under complete aseptic conditions, fed autoclaved pellets and sterile water ad libitum. Following a week of acclimatization, approximately 1 × 10^6 MDA-MB-231 cells were inoculated into both flanks for MDA-MB-231 derived xenograft tumors. Tumor-bearing mice (tumor volume around 90–110 mm^3) were randomized into various treatment groups (5 mice in each group; compounds formulated in vehicle) and treated as follows: (i) vehicle control (40% β-cyclodextrin in ddH2O, IP), (ii) VNLG-152R (5 mg/kg, IP, once daily), (iii) VNLG-152 (10 mg/kg, IP, once daily) and (iv) VNLG-152 (20 mg/kg, IP, once daily) 5 days/week for 29 days. Tumors were measured twice weekly with calipers and tumor volume was calculated by the formula: […] (mm^3). Animals were also weighed weekly and monitored for general health status and signs of possible toxicity due to treatments. Mice were sacrificed after the indicated periods of treatment and tumors and organs excised. Tumors were divided and either flash frozen in liquid nitrogen or placed in 10% buffered formalin for western blot analysis, immunohistochemistry (IHC), and hematoxylin and eosin (H & E) staining. It is important to state here that the control was part of a large study with our other retinamides whose data has already been reported.
Western blotting of tumor tissue lysates was performed according to standard protocol. Briefly, 30–50 μg protein per lysate was denatured with 2× sample buffer and resolved on 12 or 16% Tris–glycine gels by sodium dodecyl sulfate–polyacrylamide gel electrophoresis. Separated proteins were transferred onto nitrocellulose membrane by western blotting, and membrane was blocked for 1 h in blocking buffer and then incubated with specific primary antibodies (1:1000 dilution), followed by peroxidase-conjugated appropriate secondary antibody (1:3000 dilution). Finally, proteins were visualized by enhanced chemiluminescence detection and exposure to X-ray film. To confirm equal protein loading, membranes were stripped and re-probed with mouse monoclonal anti-β-actin primary antibody (Sigma).

eIF4F complex = assay: m7GTP pull-down of eIF4F complex in TNBC cells; type: cell-based, human; settings: 20 µM, 24 h, MDA-MB-231 and MDA-MB-468
Experimental: eIF4F complex in cell extracts was detected using affinity chromatography 7-methyl GTP (m7GTP)-Sepharose as described previously. Briefly, MDA-MB-231 treated with 20 μM VNLG-152 for 24 h were lysed in buffer containing 20 mM Tris-HCl (pH 7.4), 150 mM NaCl, 1 mM EDTA, 1 mM EGTA, 1 mM β-glycerophosphate, 1 mM Na3VO4, 1% Triton X-100, 2.5 mM sodium pyrophosphate, and protease inhibitor cocktail, on ice for 15 min. After centrifugation at 12,000× g for 15 min at 4 °C, the supernatants were collected and incubated with m7GTP-Sepharose (GE Healthcare Bio-Sciences Corp./Amersham, Piscataway, NJ, USA) at 4 °C for 2 h with constant shaking. Beads were washed three times with lysis buffer and three times with 1× Phosphate Buffered Salin, (PBS). The samples were then denatured, and the supernatants were then loaded to SDS-PAGE for immunoblotting.

SMILES: CC1=C(/C=C/C(C)=C/C=C/C(C)=C/C(=O)Nc2ccc(F)cc2)C(C)(C)CCC1n1ccnc1 (racemic) [VNLG-152R, 4-(±)-(1H-imidazol-1-yl)-N-(4-fluorophenyl)-(E)-retinamide]
- tumor growth inhibition (TGI) ([1]; 5 mg/kg/day IP): 91%
- tumor growth inhibition (TGI) ([1]; 10 mg/kg/day IP): 97%
- increase in the Bax/Bcl-2 ratio vs control ([1]; 20 mg/kg IP, tumor lysates): 470 fold
- tumor growth inhibition (TGI) ([1]; 20 mg/kg/day IP): 97%
- changes in body weights ([1]; 5, 10, 20 mg/kg IP): no significant changes in body weights were observed
- gross organ (liver, lung and kidney) abnormalities ([1]; 5, 10, 20 mg/kg IP, H&E staining): no gross organ (liver, lung and kidney) abnormalities
- expression of Mnk1, Mnk2, p-eIF4E, cyclin D1, Bcl-2, Bax and Bad in tumors ([1]; 10 or 20 mg/kg IP, western blot): significant dose-dependent suppressions of Mnk1, Mnk2, p-eIF4E, cyclin D1, Bcl-2, and up-regulation of Bax and Bad
- eIF4G and 4E-BP1 association with eIF4E (eIF4F complex): decreased eIF4G and increased eukaryotic translation initiation factor 4E-binding protein 1 (4E-BP1) association with eIF4E

Source: paper PMC6468747 (Cancers, 2019)
